Like-named read-outs stand apart in the source and are kept apart here.
Tests used:
Fusarium culmorum [1] = assay: microbe, parasite or virus in culture; format: cell-based; conditions: read-out: control of Fusarium culmorum
[2] = system: Botryotinia fuckeliana (Botrytis cinerea); assay: Botryotinia fuckeliana (Botrytis cinerea) / liquid culture (gray mould); format: cell-based; conditions: 72 h, read-out: control of Botryotinia fuckeliana
[3] = system: Glomerella lagenarium (Colletotrichum lagenarium); assay: Glomerella lagenarium (Colletotrichum lagenarium) / liquid culture (anthracnose); format: cell-based; conditions: Colletotrichum orbiculare, read-out: control of Glomerella lagenarium
Sclerotinia sclerotiorum = Sclerotinia sclerotiorum / liquid culture (cottony rot); conditions: 72 h, read-out: control of Sclerotinia sclerotiorum
Experimental: Sclerotinia sclerotiorum/Liquid Culture (Cottony Rot)
Mycelia fragments of a newly grown liquid culture of the fungus are directly mixed into nutrient broth (Vogels broth). After placing a (DMSO) solution of test compound into a microtiter plate (96-well format) the nutrient broth containing the fungal material is added. The test plates are incubated at 24° C. and the inhibition of growth is determined photometrically 3-4 days after application.

[4] = system: Magnaporthe grisea (Pyricularia oryzae); assay: microbe, parasite or virus in culture; format: cell-based; conditions: 72 h, read-out: control of Magnaporthe grisea
[5] = system: Monographella nivalis (Microdochium nivale); assay: Monographella nivalis (Microdochium nivale) / liquid culture (foot rot cereals); format: cell-based; conditions: 96 h, inhibition of growth photometrically 4-5 days after application, compared to untreated control
Fusarium culmorum [6] = assay: whole plant or invertebrate; format: in vivo, Fusarium culmorum on wheat spikelets cv. Monsun; conditions: in Triticum aestivum, read-out: control of Fusarium culmorum
[7] = 20 ppm, liquid culture, inhibition of growth photometrically 3-4 days after application, compared to untreated control

| SMILES | melting point | inhibition of growth at 20 ppm (Fusarium culmorum [1]) | inhibition of growth at 20 ppm [2] | inhibition of growth at 20 ppm [3] | inhibition of growth at 20 ppm [2, 7] | inhibition of growth at 20 ppm (Sclerotinia sclerotiorum) | inhibition of growth at 20 ppm [3, 7] | inhibition of growth at 20 ppm [4] | inhibition of growth at 20 ppm [5] | pest or weed control at 200 ppm (Fusarium culmorum [6]) |
| --- | --- | --- | --- | --- | --- | --- | --- | --- | --- | --- |
| C/C(=C\c1ccccc1)CC(C)(C)NC(=O)c1cc2cccc(F)c2nc1C | 108 to 110 °C |  |  |  |  |  |  |  |  |  |
| CCCCCC(C)(C)NC(=O)c1cnc2c(F)cccc2c1 [E-1] |  | ≥ 80% | ≥ 80% | ≥ 80% |  |  |  |  |  |  |
| CC(C)CC(C)(CC(C)C)NC(=O)c1cnc2c(F)cccc2c1 [E-4] | 139 to 142 °C | ≥ 80% |  |  | ≥ 80% | ≥ 80% | ≥ 80% | ≥ 80% |  |  |
| CC(C)(NC(=O)c1cnc2c(F)cccc2c1)C1CCCCC1 [E-7] |  | ≥ 80% |  |  | ≥ 80% |  | ≥ 80% |  | ≥ 80% |  |
| CC(C)CC(C)(CCc1ccccc1)NC(=O)c1cnc2c(F)cccc2c1 (centres unmarked) [E-8] | 170 to 175 °C | ≥ 80% |  |  | ≥ 80% | ≥ 80% | ≥ 80% | ≥ 80% | ≥ 80% |  |
| CC1(CC(C)(CC(F)(F)F)NC(=O)c2cnc3c(F)cccc3c2)CC1 (centres unmarked) [E-10, 8-fluoro-N-[3,3,3-trifluoro-1-methyl-1-[(1-methylcyclopropyl)methyl]propyl]quinoline-3-carboxamide] | 126 to 128 °C | ≥ 80% |  |  | ≥ 80% |  | ≥ 80% | ≥ 80% | ≥ 80% |  |
| CC(C)=CCC(C)(CC(C)C)NC(=O)c1cnc2c(F)cccc2c1 (centres unmarked) [E-11] | 94 to 96 °C | ≥ 80% |  |  | ≥ 80% |  | ≥ 80% | ≥ 80% | ≥ 80% |  |
| C=C(C)CC(C)(CC(C)C)NC(=O)c1cnc2ccccc2c1 (centres unmarked) [E-12] | 89 to 91 °C | ≥ 80% |  |  | ≥ 80% |  | ≥ 80% | ≥ 80% | ≥ 80% | ≥ 80% |
| CC(C)=CCC(C)(CC(C)C)NC(=O)c1cnc2ccccc2c1 (centres unmarked) [E-13] |  | ≥ 80% |  |  | ≥ 80% |  | ≥ 80% | ≥ 80% | ≥ 80% |  |
| CC(C)=C(C)CC(C)(CC(C)C)NC(=O)c1cnc2c(F)cccc2c1 (centres unmarked) [E-15] |  | ≥ 80% |  |  | ≥ 80% |  | ≥ 80% | ≥ 80% | ≥ 80% |  |
| CC(Cc1ccccc1)C(C)(C)NC(=O)c1cnc2c(F)cccc2c1 (centres unmarked) [E-16] |  | ≥ 80% |  |  | ≥ 80% |  | ≥ 80% |  | ≥ 80% | ≥ 80% |
| CC(CC1CC1)(CC1CC1)NC(=O)c1cnc2c(F)cccc2c1 [E-17] | 96 to 98 °C | ≥ 80% |  |  | ≥ 80% |  | ≥ 80% | ≥ 80% | ≥ 80% | ≥ 80% |
| CC(C)=C(F)CC(C)(CC(C)C)NC(=O)c1cnc2ccccc2c1 (centres unmarked) [E-19] | 95 to 97 °C | ≥ 80% |  |  | ≥ 80% |  | ≥ 80% | ≥ 80% |  | ≥ 80% |
| C=C(C)CC(COC)(CC(=C)C)NC(=O)c1cnc2c(F)cccc2c1 [E-20] | 97 to 100 °C | ≥ 80% |  |  | ≥ 80% |  | ≥ 80% | ≥ 80% | ≥ 80% | ≥ 80% |
| CC(C)CC(C)CC(C)(C)NC(=O)c1cnc2c(F)cccc2c1 (centres unmarked) [E-22] |  | ≥ 80% |  |  | ≥ 80% |  | ≥ 80% | ≥ 80% | ≥ 80% |  |
| O=C(NC(CC1CC1)CC1CC1)c1cnc2c(F)cccc2c1 [E-24] | 141 to 143 °C | ≥ 80% |  |  | ≥ 80% |  | ≥ 80% | ≥ 80% |  |  |
| CC(CC1CC1)(CC1CC1)NC(=O)c1cnc2ccccc2c1 [E-26] | 92 to 94 °C | ≥ 80% |  |  | ≥ 80% |  | ≥ 80% |  | ≥ 80% | ≥ 80% |
| C/C(=C/c1ccccc1)CC(C)(C)NC(=O)c1cnc2c(F)cccc2c1C [E-28] | 96 to 98 °C | ≥ 80% |  |  | ≥ 80% |  |  |  |  |  |
| O=C(NC(CC1CC1)CC1CC1)c1cnc2ccccc2c1 [E-29] | 123 to 125 °C | ≥ 80% |  |  | ≥ 80% |  | ≥ 80% |  |  |  |
